The source of these data is PubChem BioAssay (NCI).

Among the test systems are U251 CNS; HOP-62 NSCLC; SF-268 CNS; A549 NSCLC; SR leukemia; COLO 205 colon; OVCAR-4 ovarian; UACC-62 melanoma; IGROV1 ovarian; HCC-2998 colon.
Common to all, as to assay: NCI-60 cell line screen, 48 h

SMILES strings stand for the structures.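 96-well plates; 48 h exposure; 5 concentrations. Endpoints by linear interpolation between flanking doses. Not reached: highest tested concentration assigned. TGI is the concentration that stops growth completely.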

Consider `CC(=O)Nc1nnc(S(C)(=O)=O)s1`, for which the TGI in the test with U251 CNS, with HOP-62 NSCLC, with SF-268 CNS, in the test on A549 NSCLC, in the test on SR leukemia and in the test on COLO 205 colon was above 100 µM in each case.

Turning to `COc1cc(C2C(Cl)C(=O)N2NC(=O)c2ccc(N)cc2)cc(Br)c1O` (stereo not drawn), the TGI was determined as 35.1 µM with OVCAR-4 ovarian; 10.1 µM in the test with U251 CNS; 30.4 µM in the test with UACC-62 melanoma; 28.9 µM in the test with HOP-62 NSCLC; 19.7 µM in the test with SF-268 CNS; 42.8 µM in the test with A549 NSCLC. The TGI was determined as 34 µM in the test with IGROV1 ovarian, 33.4 µM in the test on COLO 205 colon and 24.3 µM in the test on HCC-2998 colon.

As to `Brc1ccc2c(c1)-c1nc3nc4c(cc3cc1CC2)CCc1ccc(Br)cc1-4`, the TGI in the test on OVCAR-4 ovarian, in the test with U251 CNS, in the test on HOP-62 NSCLC, in the test on SF-268 CNS, with A549 NSCLC and in the test on IGROV1 ovarian was above 100 µM throughout. In addition, the TGI in the test on COLO 205 colon and with HCC-2998 colon was above 100 µM each time.

Regarding `O=C(NCCNCCCNC(=O)c1cc(-c2ccccc2)nc2ccccc12)c1cccc(OCc2ccccc2)c1OCc1ccccc1`, the TGI was determined as 3.03 µM in the test with OVCAR-4 ovarian; 3.61 µM in the test with UACC-62 melanoma; 3.01 µM in the test on HOP-62 NSCLC; 3.15 µM in the test on A549 NSCLC; 3.44 µM with IGROV1 ovarian; 3.11 µM in the test with COLO 205 colon. This molecule also returned a TGI in the test on HCC-2998 colon of 2.59 µM.

For `CC1=CC(=O)CC(C)(C)C1/C=C/C(C)=C/C=C/C(C)=C/C=C/C=C(C)/C=C/C=C(C)/C=C/C1=C(C)CC(O)CC1(C)C` (stereo not drawn), the TGI in the test with OVCAR-4 ovarian is above 100 µM; in the test on U251 CNS, above 100 µM; in the test with HOP-62 NSCLC, above 100 µM; with SF-268 CNS, above 100 µM; in the test with IGROV1 ovarian, above 100 µM; in the test with SR leukemia, 4.52 µM. Moreover, the TGI in the test on HCC-2998 colon worked out at 99.1 µM.

Turning to `O=C(O)c1ccc(C2SCc3nc4ccccc4n32)cc1` (stereo not drawn), the TGI in the test on OVCAR-4 ovarian, in the test with U251 CNS, in the test on HOP-62 NSCLC, in the test with SF-268 CNS, with A549 NSCLC and with IGROV1 ovarian was above 100 µM each time. Further, the TGI in the test on SR leukemia and in the test with HCC-2998 colon was above 100 µM in each case.

On to `O=C(c1ccc(Cl)cc1)N(C(=S)OCc1ccccn1)c1ccccc1`, for which the TGI was above 100 µM with U251 CNS; above 100 µM in the test with UACC-62 melanoma; 75.7 µM in the test on HOP-62 NSCLC; above 100 µM with SF-268 CNS; above 100 µM with IGROV1 ovarian; above 100 µM in the test with SR leukemia. In the test with COLO 205 colon, the TGI is above 100 µM.

Regarding `CCOC1Oc2ccccc2-c2nc(SC)ncc21` (stereo not drawn), the TGI in the test on OVCAR-4 ovarian, with U251 CNS, in the test on UACC-62 melanoma, in the test with SF-268 CNS, with A549 NSCLC and in the test on IGROV1 ovarian was above 100 µM in each case. The TGI in the test with SR leukemia and in the test with COLO 205 colon was above 100 µM in each case.

As for `CCN(CC)Cc1c(/C=C\c2cc(OC)c(OC)c(OC)c2)ccc(OC)c1O`, the TGI in the test with OVCAR-4 ovarian was above 75.5 µM; in the test on U251 CNS, 17.2 µM; in the test with UACC-62 melanoma, 27.7 µM; in the test on HOP-62 NSCLC it was above 100 µM; with SF-268 CNS it was 52.2 µM; in the test with A549 NSCLC, above 100 µM. For the same molecule, the TGI with IGROV1 ovarian was above 78.5 µM; in the test on COLO 205 colon it was 7.36 µM; with HCC-2998 colon, 20.4 µM.

For `C=CCOC(=O)C1=C(CCC[C@@H](C)O[Si](C)(C)C(C)(C)C)N=C(N)N2[C@H](CCO)CC[C@@H]12`, the TGI in the test with OVCAR-4 ovarian was found to be 23.2 µM; in the test on U251 CNS, 24.7 µM; in the test with UACC-62 melanoma, 33 µM; in the test with HOP-62 NSCLC, 27.4 µM; in the test on SF-268 CNS it was 31 µM; with A549 NSCLC, 22 µM. For the same molecule, the TGI was 22.9 µM in the test with COLO 205 colon and 35.5 µM with HCC-2998 colon.

In the case of `CC(C)(C)C1=CC(=C2C(=O)C(=O)c3ccccc3C2=O)C=C(C(C)(C)C)C1=O`, the TGI in the test with U251 CNS, in the test on UACC-62 melanoma, in the test on HOP-62 NSCLC, in the test with SF-268 CNS, in the test with A549 NSCLC and in the test with IGROV1 ovarian was above 100 µM throughout. The TGI in the test on COLO 205 colon and in the test with HCC-2998 colon was above 100 µM throughout.

Take `Cn1c(=O)sc2cc(C(=S)N3CCC(Cc4ccccc4)CC3)ccc21`: the TGI is 78.1 µM in the test with U251 CNS; above 100 µM in the test with UACC-62 melanoma; above 100 µM with HOP-62 NSCLC; above 100 µM in the test on SF-268 CNS; above 100 µM with IGROV1 ovarian; above 100 µM in the test with SR leukemia. In the test with COLO 205 colon, this molecule registered a TGI above 100 µM.

On to `COc1ccc(C(=O)/C=C/c2ccc(OCCSCCCCCCCCCCSCCOc3ccc(/C=C/C(=O)c4ccc(OC)c(OC)c4)cc3)cc2)cc1OC`, for which the TGI in the test with UACC-62 melanoma, in the test on HOP-62 NSCLC, in the test with SF-268 CNS, with A549 NSCLC, with IGROV1 ovarian and in the test on SR leukemia was above 100 µM each time. The TGI in the test on COLO 205 colon and in the test on HCC-2998 colon was above 100 µM throughout.

For the molecule `Cc1cc(S(=O)(=O)/N=C(/[N-]S(=O)(=O)c2ccc(Cl)cc2)[n+]2ccc(N(C)C)cc2)c(SCC(=O)O)cc1Cl`, the TGI in the test on OVCAR-4 ovarian is above 100 µM; with U251 CNS, above 100 µM; in the test with UACC-62 melanoma, above 100 µM; in the test on HOP-62 NSCLC, 46.2 µM; in the test with SF-268 CNS it was above 100 µM; with A549 NSCLC, above 100 µM. The TGI in the test on SR leukemia and in the test on COLO 205 colon was above 100 µM each time.

Turning to `O=Cc1ccc(CCl)cc1`, the TGI in the test with U251 CNS was 35.4 µM; in the test on UACC-62 melanoma, 27.3 µM; in the test with SF-268 CNS it was 66.9 µM; in the test with A549 NSCLC it was above 100 µM; in the test with IGROV1 ovarian, 46.3 µM; in the test on SR leukemia, above 100 µM. Further, the TGI in the test with COLO 205 colon is above 100 µM.

For the molecule `O=C(OCc1ccccc1)N(CCCCN(CCCNCc1ccccc1)C(=O)OCc1ccccc1)CCCNCc1ccccc1`, the TGI with UACC-62 melanoma came to 3.19 µM; in the test with IGROV1 ovarian it was 2.05 µM; with COLO 205 colon, 0.33 µM; in the test with HCC-2998 colon, 0.933 µM.

In the case of `C[N+](C)(C)CC(=O)N/N=C/c1ccncc1`, the TGI in the test on OVCAR-4 ovarian, in the test on U251 CNS, in the test on UACC-62 melanoma, with HOP-62 NSCLC, with SF-268 CNS and with A549 NSCLC was above 100 µM throughout. Further, the TGI in the test with IGROV1 ovarian, in the test with SR leukemia and in the test with COLO 205 colon was above 100 µM throughout.
